The values below come from paper PMC8102459, “3,3′-Thiodipropionic acid (TDP), a possible precursor for the synthesis of polythioesters: identification of TDP transport proteins in Variovorax paradoxus TBEA6” (Applied Microbiology and Biotechnology, 2021).

Holding throughout (assay): thermal shift assay, SYPRO Orange, real-time PCR
Common to all, as to assay type: binding
For orientation: Real-time PCR tracks product formation cycle by cycle.

Assay [1] has as its target T1, TctC-44430 (TctC, locus tag VPARA-44430) (Variovorax paradoxus, UniProt A0A0H2LXQ8).
T1 construct: gene VPARA_44430; His-tagged (pET19b N-terminal; pET23a C-terminal also made), E. coli BL21
T1 sequence (A0A0H2LXQ8 1-329 limits assumed): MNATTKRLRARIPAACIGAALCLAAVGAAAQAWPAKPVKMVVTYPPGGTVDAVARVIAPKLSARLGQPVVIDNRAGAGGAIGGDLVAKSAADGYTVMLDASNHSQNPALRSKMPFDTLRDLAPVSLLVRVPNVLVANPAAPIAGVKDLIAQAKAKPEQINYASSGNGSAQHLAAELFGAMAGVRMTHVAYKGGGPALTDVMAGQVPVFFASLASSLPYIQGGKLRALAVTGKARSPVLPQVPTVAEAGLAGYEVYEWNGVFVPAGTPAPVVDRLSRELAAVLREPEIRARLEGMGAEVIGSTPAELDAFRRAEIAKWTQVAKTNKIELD
To be noted: 1 μM protein, sodium phosphate pH 7.4; value is the melting temperature, not the shift; control Tm not given.

Assay [2] has as its target T2, TctC protein with locus tag VPARA-01760 (Variovorax paradoxus, UniProt A0A0H2MDR2).
T2 construct: gene VPARA_01760; His-tagged (pET19b or pET23a)
T2 sequence (A0A0H2MDR2 1-326 limits assumed): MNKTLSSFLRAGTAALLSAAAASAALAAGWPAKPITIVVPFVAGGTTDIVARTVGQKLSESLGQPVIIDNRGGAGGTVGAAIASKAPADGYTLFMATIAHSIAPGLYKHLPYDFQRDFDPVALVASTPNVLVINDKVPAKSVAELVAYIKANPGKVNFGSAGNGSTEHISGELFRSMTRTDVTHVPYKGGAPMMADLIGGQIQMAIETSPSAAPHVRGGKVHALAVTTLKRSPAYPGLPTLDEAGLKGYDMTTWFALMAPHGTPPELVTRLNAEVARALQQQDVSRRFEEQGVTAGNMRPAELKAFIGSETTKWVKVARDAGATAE
The following applies: 1 μM protein, sodium phosphate pH 7.4, 0.1 to 3000 μM ligand.

In assay [3] the target is T1, TctC-44430 (TctC, locus tag VPARA-44430). To be noted: 1 μM protein, sodium phosphate pH 7.4; value is the melting temperature, not the shift; control Tm not given. This is another data set of the same source.

By Tm is commonly meant the temperature at which the thermal transition is half complete.

`O=C(O)CCSCCC(=O)O` [TDP, 3,3′-Thiodipropionic acid]: in assay [1], the “Tm at 3000 μM TDP” value was 56 °C. Moreover, in assay [2], the Tm shift entry is recorded as “VPARA-01760 also showed temperature shifts with TDP or gluconate”.

For the compound `O=C(O)[C@H](O)[C@@H](O)[C@H](O)[C@H](O)CO` [gluconate], the Tm shift result in assay [2] was “VPARA-01760 also showed temperature shifts with TDP or gluconate”. Besides, the “Tm at 3000 μM gluconate” value in assay [3] turned out to be 83 °C.
